The subject of test [1] is Zymoseptoria tritici. The experiment in a line: Fungicidal activity: leaf blotch of wheat (SEPTTR), wheat seedlings, booth sprayer to run-off or track spray. Type of test: in vivo. The settings on record: for pest or weed control at 100 ppm: High-Volume Cereal Activity at 100 ppm; for pest or weed control at 121.5 g/ha: Low-Volume Cereal Activity at 121.5 g/H. How it is done:
All fungicides were evaluated using the aforementioned method for their activity vs. all target diseases. Wheat leaf blotch and brown rust activity were also evaluated using track spray applications, in which case the fungicides were formulated as EC formulations, containing 0.1% Trycol 5941 in the spray solutions. Wheat plants (variety Yuma) were grown from seed in a greenhouse in 50% mineral soil/50% soil-less Metro mix until the first leaf was fully emerged, with 7-10 seedlings per pot. These plants were inoculated with an aqueous spore suspension of Zymoseptoria tritici either prior to or after fungicide treatments. After inoculation the plants were kept in 100% relative humidity (one day in a dark dew chamber followed by two to three days in a lighted dew chamber at 20° C.) to permit spores to germinate and infect the leaf. The plants were then transferred to a greenhouse set at 20° C. for disease to develop. When disease symptoms were fully expressed on the 1st leaves of untreated plants, infection levels were assessed on a scale of 0 to 100 percent disease severity. Percent disease control was calculated using the ratio of disease severity on treated plants relative to untreated plants.

The subject of test [2] is Puccinia triticina. The experiment in a line: Fungicidal activity: wheat brown rust (PUCCRT), wheat seedlings, booth sprayer to run-off or track spray. Type of test: in vivo. Particulars: for pest or weed control at 100 ppm: High-Volume Cereal Activity at 100 ppm; for pest or weed control at 121.5 g/ha: Low-Volume Cereal Activity at 121.5 g/H. The method, then:
All fungicides were evaluated using the aforementioned method for their activity vs. all target diseases. Wheat leaf blotch and brown rust activity were also evaluated using track spray applications, in which case the fungicides were formulated as EC formulations, containing 0.1% Trycol 5941 in the spray solutions. Wheat plants (variety Yuma) were grown from seed in a greenhouse in 50% mineral soil/50% soil-less Metro mix until the first leaf was fully emerged, with 7-10 seedlings per pot. These plants were inoculated with an aqueous spore suspension of Puccinia triticina either prior to or after fungicide treatments. […] The plants were then transferred to a greenhouse set at 24° C. for disease to develop. Fungicide formulation, application and disease assessment followed the procedures as described in the Example A.

Setting [3] is: 24 h, 1 Day Protectant, read-out: SEPTTR 1DP.
Setting [4] is: 3DC (Day Curative), read-out: SEPTTR 3DC.
Setting [5] is: 24 h, 1 Day Protectant, read-out: PUCCRT 1DP.
[6] abbreviates: 3DC (Day Curative), read-out: PUCCRT 3DC.
Setting [7] is: 72 h, 3 Day Curative, read-out: PUCCRT 3DC.

Where two headings read alike, the source gives them in different places.

For the compound `CCCO[C@@H](CC)[C@@H](Cc1ccccc1)[C@H](C)OC(=O)[C@H](C)NC(=O)c1nccc(OC)c1O` [compound 91], the pest or weed control at 100 ppm in test [1] (setting [3]) was in the range of 0 to 80%; in test [1] (setting [4]), 80 to 100%; in test [2] (setting [5]) it was 80 to 100%; in test [2] (setting [6]) it was 80 to 100%.

As to `CCCO[C@H](CC)[C@@H](Cc1ccccc1)[C@H](C)OC(=O)[C@H](C)NC(=O)c1nccc(OC)c1O` [compound 92], the pest or weed control at 100 ppm in test [1] (setting [3]), in test [1] (setting [4]), in test [2] (setting [5]) and in test [2] (setting [6]) was 80 to 100% each time.

Regarding `CCCOC[C@@H](Cc1ccccc1)[C@H](C)OC(=O)[C@H](C)NC(=O)c1nccc(OC)c1O` [compound 93], the pest or weed control at 100 ppm in test [1] (setting [3]) was 0 to 80%; in test [1] (setting [4]) it was 80 to 100%; in test [2] (setting [5]), 80 to 100%; in test [2] (setting [6]), 80 to 100%.

Take `CCCO[C@@H](CC)[C@@H](Cc1ccccc1)[C@H](C)OC(=O)[C@@H](C)NC(=O)c1nccc(OC)c1O` [compound 94]: the pest or weed control at 100 ppm was 0 to 80% in test [1] (setting [3]), 0 to 80% in test [1] (setting [4]), 80 to 100% in test [2] (setting [5]) and 80 to 100% in test [2] (setting [6]).

As to `CCCO[C@@H](CC)[C@@H](Cc1ccccc1)[C@H](C)OC(=O)[C@H](CC)NC(=O)c1nccc(OC)c1O` [compound 95], the pest or weed control at 100 ppm lay in the range of 0 to 80% in test [1] (setting [3]), 0 to 80% in test [1] (setting [4]), 80 to 100% in test [2] (setting [5]) and 80 to 100% in test [2] (setting [6]).

Take `CCCO[C@H](CC)[C@@H](Cc1ccccc1)[C@H](C)OC(=O)[C@@H](C)NC(=O)c1nccc(OC)c1O` [compound 96]: the pest or weed control at 100 ppm was in the range of 80 to 100% in test [1] (setting [3]), 0 to 80% in test [1] (setting [4]), 80 to 100% in test [2] (setting [5]) and 80 to 100% in test [2] (setting [6]).

Turning to `CCCOC[C@@H](Cc1ccccc1)[C@H](C)OC(=O)[C@@H](C)NC(=O)c1nccc(OC)c1O` [compound 97], the pest or weed control at 100 ppm in test [1] (setting [3]), in test [1] (setting [4]), in test [2] (setting [5]) and in test [2] (setting [6]) was 0 to 80% throughout.

On to `CCCOC[C@@H](Cc1ccccc1)[C@H](C)OC(=O)[C@H](CC)NC(=O)c1nccc(OC)c1O` [compound 98], for which the pest or weed control at 100 ppm in test [1] (setting [3]), in test [1] (setting [4]), in test [2] (setting [5]) and in test [2] (setting [6]) was 80 to 100% in each case.

Consider `CCCOC[C@@H](Cc1ccccc1)[C@H](C)OC(=O)C(C)(C)NC(=O)c1nccc(OC)c1O` [compound 99], for which the pest or weed control at 100 ppm in test [1] (setting [4]), in test [2] (setting [5]) and in test [2] (setting [6]) was 0 to 80% throughout.

In the case of `CCCO[C@@H](CC)[C@@H](Cc1ccccc1)[C@H](C)OC(=O)C(C)(C)NC(=O)c1nccc(OC)c1O` [compound 100], the pest or weed control at 100 ppm in test [1] (setting [4]) and in test [2] (setting [5]) was 0 to 80% throughout.

With `CC[C@H](CCCc1ccccc1)[C@@H](CC(C)C)[C@H](C)OC(=O)C(C)NC(=O)c1nccc(OC)c1O` (stereo partly shown) [compound 101], the pest or weed control at 100 ppm lay in the range of 80 to 100% in test [1] (setting [3]), 80 to 100% in test [2] (setting [5]) and 0 to 80% in test [2] (setting [6]).

In the case of `CC[C@H](CC1CC1)[C@@H](Cc1ccccc1)[C@H](C)OC(=O)[C@H](C)NC(=O)c1nccc(OC)c1O` [compound 102], the pest or weed control at 100 ppm in test [1] (setting [3]) lay within 0 to 80%; in test [1] (setting [4]), 80 to 100%; in test [2] (setting [5]) it was 80 to 100%; in test [2] (setting [6]) it was 80 to 100%.

As to `CC[C@H](Cc1ccccc1)[C@@H](Cc1ccc(F)cc1)[C@H](C)OC(=O)[C@H](C)NC(=O)c1nccc(OC)c1O` [compound 103], the pest or weed control at 100 ppm in test [1] (setting [3]) fell in the range of 80 to 100%; in test [1] (setting [4]), 0 to 80%; in test [2] (setting [5]), 80 to 100%; in test [2] (setting [6]), 0 to 80%.

`CCCOC[C@@H](Cc1ccccc1)[C@H](C)OC(=O)CNC(=O)c1nccc(OC)c1O` [compound 104]: the pest or weed control at 100 ppm in test [1] (setting [4]) and in test [2] (setting [6]) was 0 to 80% in each case.

For the compound `CCOC[C@H](Oc1ccc(C)cc1)[C@@H](Cc1ccc(F)cc1)[C@H](C)OC(=O)[C@H](C)NC(=O)c1nccc(OC)c1O` [compound 105], the pest or weed control at 100 ppm was in the range of 0 to 80% in test [1] (setting [3]), 0 to 80% in test [1] (setting [4]), 80 to 100% in test [2] (setting [5]) and 0 to 80% in test [2] (setting [6]).

Take `CCCOC[C@@H](Cc1ccccc1)[C@H](C)OC(=O)C(COC)NC(=O)c1nccc(OC)c1O` (stereo partly shown) [compound 106]: the pest or weed control at 100 ppm in test [1] (setting [4]), in test [2] (setting [5]) and in test [2] (setting [6]) was 0 to 80% throughout.

Regarding `C=C[C@H](Cc1ccc(C(F)(F)F)cc1)[C@@H](Cc1ccc(F)cc1)[C@H](C)OC(=O)[C@H](COC)NC(=O)c1nccc(OC)c1O` [compound 107], the pest or weed control at 100 ppm in test [2] (setting [5]) lay within 0 to 80%.

Turning to `C=C[C@H](Cc1ccc(C(F)(F)F)cc1)[C@@H](Cc1ccc(F)cc1)[C@H](C)OC(=O)[C@H](C)NC(=O)c1nccc(OC)c1O` [compound 108], the pest or weed control at 100 ppm in test [1] (setting [4]) lay within 0 to 80%; in test [2] (setting [5]), 80 to 100%.

Consider `C=C[C@H](Cc1ccc(C(F)(F)F)cc1)[C@@H](Cc1ccc(F)cc1)[C@H](C)OC(=O)CNC(=O)c1nccc(OC)c1O` [compound 109], for which the pest or weed control at 100 ppm in test [2] (setting [5]) was 0 to 80%.

On to `CC[C@H](Cc1ccc(C(F)(F)F)cc1)[C@@H](Cc1ccc(F)cc1)[C@H](C)OC(=O)[C@H](COC)NC(=O)c1nccc(OC)c1O` [compound 110], for which the pest or weed control at 100 ppm in test [2] (setting [5]) is 80 to 100%.

For `CC[C@H](Cc1ccccc1)[C@@H](Cc1ccc(OC(F)(F)F)cc1)[C@H](C)OC(=O)[C@H](C)NC(=O)c1nccc(OC)c1O` [compound 112], the pest or weed control at 100 ppm in test [1] (setting [3]) and in test [2] (setting [5]) was 0 to 80% throughout.

`CCC[C@@H](Cc1ccccc1)[C@H](C)OC(=O)[C@H](C)NC(=O)c1nccc(OC)c1O` [compound 113]: the pest or weed control at 100 ppm in test [1] (setting [3]) lay within 0 to 80%; in test [1] (setting [4]) it was 80 to 100%; in test [2] (setting [5]) it was 80 to 100%; in test [2] (setting [6]) it was 80 to 100%.

As to `COC(=O)[C@@H](Cc1ccccc1)[C@H](C)OC(=O)[C@H](C)NC(=O)c1nccc(OC)c1O` [compound 114], the pest or weed control at 100 ppm in test [1] (setting [4]), in test [2] (setting [5]) and in test [2] (setting [6]) was 0 to 80% in each case.

Take `COc1ccnc(C(=O)N[C@@H](C)C(=O)O[C@@H](C)[C@H](Cc2ccccc2)c2ccccc2)c1O` [compound 119]: the pest or weed control at 100 ppm in test [1] (setting [4]) lay in the range of 0 to 80%.

Regarding `COc1ccnc(C(=O)N[C@@H](C)C(=O)O[C@@H](C)[C@H](Cc2ccccc2)C(C)C)c1O` [compound 122], the pest or weed control at 100 ppm in test [2] (setting [5]) is 0 to 80%.

Turning to `COc1cccc(CC(Cc2cccc(OC)c2)[C@H](C)OC(=O)[C@H](C)NC(=O)c2nccc(OC)c2O)c1` [compound 152], the pest or weed control at 100 ppm in test [2] (setting [5]) fell in the range of 80 to 100%; in test [2] (setting [6]), 0 to 80%.

For `CCCOC[C@@H](Cc1ccccc1)[C@H](C)OC(=O)CNC(=O)c1nccc(OC)c1OC(C)=O` [compound 176], the pest or weed control at 121.5 g/ha in test [2] (setting [5]) lay in the range of 80 to 100%; in test [2] (setting [7]), 0 to 80%.

As for `CC[C@H](Cc1ccc(C(F)(F)F)cc1)[C@@H](Cc1ccc(F)cc1)[C@H](C)OC(=O)[C@H](C)NC(=O)c1nccc(OC)c1OC(C)=O` [compound 182], the pest or weed control at 121.5 g/ha in test [2] (setting [5]) and in test [2] (setting [7]) was 0 to 80% each time.

For `CC[C@H](Cc1ccc(C(F)(F)F)cc1)[C@@H](Cc1ccc(F)cc1)[C@H](C)OC(=O)CNC(=O)c1nccc(OC)c1OC(C)=O` [compound 183], the pest or weed control at 121.5 g/ha in test [2] (setting [5]) lay within 0 to 80%.

Consider `COC(=O)[C@@H](Cc1ccccc1)[C@H](C)OC(=O)[C@H](C)NC(=O)c1nccc(OC)c1OC(C)=O` [compound 186], for which the pest or weed control at 121.5 g/ha in test [1] (setting [3]) is 0 to 80%.

For the compound `COc1ccnc(C(=O)N[C@@H](C)C(=O)O[C@@H](C)[C@H](Cc2ccc(Cl)c(Cl)c2)c2ccccc2)c1OC(=O)C(C)C` [compound 217], the pest or weed control at 121.5 g/ha in test [1] (setting [3]) is 0 to 80%; in test [1] (72 h, 3 Day Curative, read-out: SEPTTR 3DC) it was 0 to 80%.

For the compound `CCCOC[C@@H](Cc1ccc(OC)cc1)[C@H](C)OC(=O)[C@H](C)NC(=O)c1nccc(OC)c1OCOC(C)=O` [compound 256], the pest or weed control at 121.5 g/ha in test [2] (setting [5]) and in test [2] (setting [7]) was 80 to 100% each time.

The values are drawn from US10173971B2, “Picolinamides with fungicidal activity” (DOW AGROSCIENCES LLC, priority 2014, dated 2019).
